Results from patent EP3095787A1, “[…] ACTIVE COMPOUNDS AS DAG-LIPASE INHIBITORS” (Universiteit Leiden, priority 2015, dated 2016).
pIC50: −log10 of the molar value.

Columns and labels:
hDAGL-β = target: T1, hDAGL-β (Homo sapiens, UniProt Q8NCG7); experiment: Biochemical assay with para-nitrophenylbutyrate as surrogate substrate on human DAGL-β; settings: n=4
T1 sequence (Q8NCG7 1-672): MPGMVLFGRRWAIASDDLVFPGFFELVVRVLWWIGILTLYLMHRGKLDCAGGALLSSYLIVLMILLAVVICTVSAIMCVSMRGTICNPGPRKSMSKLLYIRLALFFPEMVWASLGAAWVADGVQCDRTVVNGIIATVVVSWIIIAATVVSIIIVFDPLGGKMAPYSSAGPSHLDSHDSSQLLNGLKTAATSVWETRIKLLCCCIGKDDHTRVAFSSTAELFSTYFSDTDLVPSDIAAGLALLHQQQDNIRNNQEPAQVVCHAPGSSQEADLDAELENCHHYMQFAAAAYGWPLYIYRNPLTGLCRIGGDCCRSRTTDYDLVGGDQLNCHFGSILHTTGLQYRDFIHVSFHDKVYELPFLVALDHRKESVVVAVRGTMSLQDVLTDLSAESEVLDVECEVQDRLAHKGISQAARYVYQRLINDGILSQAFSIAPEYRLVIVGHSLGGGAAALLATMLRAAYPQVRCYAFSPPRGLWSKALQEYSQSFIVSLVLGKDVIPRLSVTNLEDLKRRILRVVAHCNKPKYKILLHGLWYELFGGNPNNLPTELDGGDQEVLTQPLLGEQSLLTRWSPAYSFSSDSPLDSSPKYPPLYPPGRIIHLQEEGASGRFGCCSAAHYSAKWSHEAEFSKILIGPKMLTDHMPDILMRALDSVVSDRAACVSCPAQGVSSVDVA

Neuro2A cells = experiment: Targeted lipidomics in Neuro2A cells; assay type: cell-based, mouse; settings: in situ treatment 1h, 37 °C; n=4
Description: To test the cellular activity of inventive compound 25, the inventor used Neuro2A cells, which is a mouse neuroblastoma cell line known to express both DAGL-α and DAGL-β. In a targeted lipidomics experiment the effect of inventive compound 25 on the cellular levels of 2-AG and anandamide was determined.
Neuro2A cells were cultured as described above. Before inhibitor treatment, the culture medium was removed and the cells were washed with warm (37 °C) serum free medium (3x). The cells were treated with vehicle (DMSO) or inhibitor for 1h at 37 °C in serum free medium. […]
Endocannabinoids were measured using a chip-based nano liquid chromatography (LC) system coupled to a triple quadrupole mass spectrometer. […]
A 6440 Triple quadrupole equipped with a nonoESI source operating in positive mode (Agilent technologies, Walborn, Germany) was used for MS detection. […] Quantification was obtained using static MRM (multiple reaction monitoring) mode of the transistions at m/z 379.3 → 287.2 for 2AG, 348.3 → 62.2 for AEA and 387.3 → 294.2 for 2AGd8, 356.3 → 62.2 for AEAd8 (internal standards). […] Raw MS data were processes using mass hunter quantitative analysis work station (Agilent technologies). AEA and 2AG was quantified by using a matrix matched internal standard calibration curve. […]

pIC50 (hDAGL-β): 8.10
SMILES: Cc1ccc(-c2cnc3nc(C(=O)CCCCCc4ccccc4)oc3c2)cc1 [Compound 25, 1-(6-(p-Tolyl)oxazolo[4,5-b]pyridin-2-yl)-6-phenylhexan-1-one]
anandamide levels (Neuro2A cells): constant | basal 2-AG levels (Neuro2A cells): dose dependently decreased
